Patent US4889860A (Nova Pharmaceutical Corporation, priority 1987, dated 1989)
Like-named read-outs stand apart in the source and are kept apart here.

Assays:
[1] = biological target: delta-type opioid receptor (Rattus norvegicus, UniProt P33533); assay: inhibition of specific [^3 H] DADLE binding to rat forebrain membranes
[2] = conditioned taste aversion in rats; assay type: in vivo, rat; conditions: for conditioned taste aversion (milk intake, preference ratio): I.P., day 10
Method: The ability of a compound to inhibit feeding may not be related to its anorectic properties, but rather to the ability of that compound to produce a conditioned taste aversion. This possibility was tested in the following experiment. Animals were adapted to water deprivation by restricting their access to water to a single 30 min presentation occurring at the same time every day. Baseline water intakes were determined for 7 days until intakes had stabilized, and animals were assigned to treatment groups based on their intakes on the final baseline day. On the following day (day 8), all rats received a bottle of condensed milk (diluted 2:1 water:milk) in place of the water, and intakes were recorded for 30 min. Fifteen minutes after the milk was removed, rats were administered an I.P. injection of vehicles, LiCl (299.6 μmol/kg) or the compound of Example XII (1.15, 2.31, 11.55 and 23.09 μmol/kg). The compound of Example XII was dissolved in 0.3% acetic acid in a volume of 4 ml/kg. LiCl was dissolved in saline, and serves as a positive control, since it is a compound that reliably produces a strong conditioned taste aversion. This procedure was repeated on day 9. On day 10, all rats were given a two-bottle choice of water or the milk:water solution, and intakes were recorded for 30 min. Data for each experiment were analyzed by one-way ANOVA, and post-hoc comparisons were performed using Dunnett's test.
The effects of the compound of Example XII in producing a conditioned taste aversion are illustrated in FIGS. 28 and 29. In FIGS. 28 and 29 the data represent the mean ±SEM for each group. **=p<0.01 (Dunnett's test). Abbreviations: SAL, saline; AA, 0.3% acetic acid in distilled water; LiCl, lithium chloride. Doses of the compound of Example XII for each group are expressed in μmole/kg. The number of animals per group: SAL, 4: AA, LiCl and each dose of Example XII, 5. FIG. 28: Total milk intake in ml on day 10. FIG. 29: Preference ratio on day 10.

Sequence of delta-type opioid receptor (P33533 whole entry): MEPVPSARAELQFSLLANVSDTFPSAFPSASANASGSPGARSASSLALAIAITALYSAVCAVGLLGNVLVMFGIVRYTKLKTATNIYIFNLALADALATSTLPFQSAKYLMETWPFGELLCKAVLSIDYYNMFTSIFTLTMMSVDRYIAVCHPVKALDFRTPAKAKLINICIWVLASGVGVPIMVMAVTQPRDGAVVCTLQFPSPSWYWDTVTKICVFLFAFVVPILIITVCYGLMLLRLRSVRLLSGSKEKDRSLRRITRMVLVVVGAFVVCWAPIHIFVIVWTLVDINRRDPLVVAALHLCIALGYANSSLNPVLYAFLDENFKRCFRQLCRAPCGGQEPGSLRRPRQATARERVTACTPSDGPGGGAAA

Structure (SMILES): Oc1ccc2c3c1O[C@H]1C(=NOc4ccccc4)CC[C@@]4(O)[C@@H](C2)N(CC2CC2)CC[C@]314 [Example XII, 6-Phenyloximino-17-cyclopropylmethyl-4,5 α-epoxy-3, 14-dihydroxymorphinan]
- Ki ([1]; read-out: (Ki) nM, δ receptor (Rat Forebrain), Table 6, [^3 H] DADLE, mean of three experiments): 0.58 nM
- Ki ([1]; read-out: Ki, inhibition of specific [^3 H] DADLE binding, Tables 1 and 2, rat brain membranes, MEAN±S.E.M.): 1.7 ± 0.51 nM
- conditioned taste aversion (milk intake, preference ratio) [2]: totally ineffective in producing a conditioned taste aversion
- conditioned taste aversion (milk intake, preference ratio) ([2]; listed as Compound XII): inability of various doses
- general malaise ([2]; doses up to 23.09 μmol/kg): does not appear to cause any general malaise at doses up to 23.09 μmol/kg
